The values that follow come from paper PMC10739630, “Galidesivir Triphosphate Promotes Stalling of Dengue-2 Virus Polymerase Immediately Prior to Incorporation” (ACS Infectious Diseases, 2023).

Holding throughout (format): biochemical
Test [1] deals with T1, DENV2 NS5 (Dengue virus 2 Thailand/16681/84, UniProt P29990). Nature of the test: SYTO […] fluorescence RdRp assay, A2-primed, poly(U) template. The conditions noted are these: read-out: IC50 ^a (μM, mean ± std. dev.).
Another test addresses ZIKV NS5 (Zika virus, UniProt Q32ZE1). Described as above. Conditions: read-out: IC50 ^a (μM, mean ± std. dev.).
The target in test [2] is T1, DENV2 NS5. The conditions noted are these: read-out: KM^app for ATP.

T1 sequence (P29990 2492-3391 limits assumed): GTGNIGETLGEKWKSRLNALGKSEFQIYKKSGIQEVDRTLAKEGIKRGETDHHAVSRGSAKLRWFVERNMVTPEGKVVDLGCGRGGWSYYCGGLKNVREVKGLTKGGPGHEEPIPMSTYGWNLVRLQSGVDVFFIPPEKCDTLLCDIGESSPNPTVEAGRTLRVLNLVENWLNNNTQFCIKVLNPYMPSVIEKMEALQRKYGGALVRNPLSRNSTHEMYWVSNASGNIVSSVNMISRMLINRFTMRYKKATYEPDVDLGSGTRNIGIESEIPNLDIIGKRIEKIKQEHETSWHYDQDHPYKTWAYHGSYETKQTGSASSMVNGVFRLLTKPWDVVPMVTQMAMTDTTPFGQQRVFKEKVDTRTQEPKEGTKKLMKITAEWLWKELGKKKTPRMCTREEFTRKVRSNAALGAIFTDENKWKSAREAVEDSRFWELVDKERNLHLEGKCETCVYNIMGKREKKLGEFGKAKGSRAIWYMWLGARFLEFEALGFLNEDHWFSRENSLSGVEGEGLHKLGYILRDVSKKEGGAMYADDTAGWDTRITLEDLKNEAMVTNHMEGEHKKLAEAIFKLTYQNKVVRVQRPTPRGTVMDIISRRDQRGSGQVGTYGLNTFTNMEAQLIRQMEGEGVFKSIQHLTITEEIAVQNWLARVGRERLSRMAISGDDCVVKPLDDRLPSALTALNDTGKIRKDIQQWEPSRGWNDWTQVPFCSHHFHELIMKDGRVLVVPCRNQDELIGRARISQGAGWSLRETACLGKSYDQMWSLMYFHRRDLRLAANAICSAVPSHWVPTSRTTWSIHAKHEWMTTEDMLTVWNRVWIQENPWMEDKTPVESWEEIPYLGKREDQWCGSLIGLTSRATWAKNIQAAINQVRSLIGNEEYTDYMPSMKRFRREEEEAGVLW
Chain of ZIKV NS5 (Q32ZE1 2517-3419): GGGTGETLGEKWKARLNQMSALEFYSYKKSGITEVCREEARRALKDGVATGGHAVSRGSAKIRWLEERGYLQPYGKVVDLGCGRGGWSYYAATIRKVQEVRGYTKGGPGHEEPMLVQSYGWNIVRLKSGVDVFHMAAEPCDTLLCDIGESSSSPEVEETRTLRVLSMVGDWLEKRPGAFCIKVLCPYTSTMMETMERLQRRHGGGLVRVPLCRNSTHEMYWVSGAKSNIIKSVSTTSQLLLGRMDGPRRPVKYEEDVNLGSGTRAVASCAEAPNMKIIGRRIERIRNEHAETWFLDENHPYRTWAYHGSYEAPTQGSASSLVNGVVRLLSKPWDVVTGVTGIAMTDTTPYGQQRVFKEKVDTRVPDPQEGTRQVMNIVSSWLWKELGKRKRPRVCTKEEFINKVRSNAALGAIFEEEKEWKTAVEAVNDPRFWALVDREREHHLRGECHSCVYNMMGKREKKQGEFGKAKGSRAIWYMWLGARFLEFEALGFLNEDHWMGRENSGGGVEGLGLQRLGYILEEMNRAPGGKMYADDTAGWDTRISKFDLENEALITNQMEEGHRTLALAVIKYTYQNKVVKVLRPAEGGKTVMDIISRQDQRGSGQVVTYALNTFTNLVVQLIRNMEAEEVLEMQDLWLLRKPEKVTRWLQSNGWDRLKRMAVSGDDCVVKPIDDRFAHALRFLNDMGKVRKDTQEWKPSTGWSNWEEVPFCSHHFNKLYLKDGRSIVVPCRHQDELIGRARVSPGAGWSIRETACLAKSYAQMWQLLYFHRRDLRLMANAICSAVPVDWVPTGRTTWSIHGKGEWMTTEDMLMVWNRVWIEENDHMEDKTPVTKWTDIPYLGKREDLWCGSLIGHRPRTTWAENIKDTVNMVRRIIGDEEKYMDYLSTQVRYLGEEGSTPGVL

As usually defined, the IC50 is the concentration that gives 50% inhibition. On to `Nc1ncnc2c([C@@H]3N[C@H](COP(=O)(O)OP(=O)(O)OP(=O)(O)O)[C@@H](O)[C@H]3O)c[nH]c12` [Gal-TP], for which the half-maximal inhibitory concentration (IC50) was 42 ± 12 µM on DENV2 NS5 [1] and 47 ± 5 µM on ZIKV NS5. In general, Km refers to the substrate concentration at which the rate is half of its maximum. As to `Nc1ncnc2c1ncn2[C@@H]1O[C@H](COP(=O)(O)OP(=O)(O)OP(=O)(O)O)[C@@H](O)[C@H]1O` [ATP], on DENV2 NS5 [2], the Km is 430 µM. As for `Nc1ncnc2c1ncn2[C@@H]1O[C@H](COP(=O)(O)OP(=O)(O)OP(=O)(O)O)C[C@H]1O` [3′-dATP, reference compound], the values for the IC50 on DENV2 NS5 [1] and at ZIKV NS5 were 0.48 ± 0.05 µM and 0.06 ± 0.02 µM, respectively.
